From ChEMBL document CHEMBL3217754, “Nitro-based inhibitors against thermolysin” (Medchemcomm, 2011)

Biological target: T1, Thermolysin (Bacillus thermoproteolyticus, UniProt P00800)
T1 sequence (P00800 whole entry): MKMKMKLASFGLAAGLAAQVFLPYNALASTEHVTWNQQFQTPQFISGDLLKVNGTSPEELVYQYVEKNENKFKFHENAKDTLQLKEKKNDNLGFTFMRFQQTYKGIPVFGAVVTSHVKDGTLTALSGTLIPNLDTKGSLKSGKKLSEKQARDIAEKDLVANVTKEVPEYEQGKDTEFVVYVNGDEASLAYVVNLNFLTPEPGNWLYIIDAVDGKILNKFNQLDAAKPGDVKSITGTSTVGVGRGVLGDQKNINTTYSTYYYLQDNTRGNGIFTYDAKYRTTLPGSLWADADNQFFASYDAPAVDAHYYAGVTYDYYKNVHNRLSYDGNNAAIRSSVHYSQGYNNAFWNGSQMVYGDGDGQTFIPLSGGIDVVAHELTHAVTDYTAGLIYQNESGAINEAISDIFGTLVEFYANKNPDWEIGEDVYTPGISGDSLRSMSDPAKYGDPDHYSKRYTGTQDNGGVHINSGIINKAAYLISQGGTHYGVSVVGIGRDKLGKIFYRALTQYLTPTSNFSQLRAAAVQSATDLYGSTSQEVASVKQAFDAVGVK
Experiment: Competitive inhibition of Bacillus thermoproteolyticus thermolysin using N-[3-(2-furyl)acryloyl]Gly-L-Leu-NH2 as substrate by Dixon plot analysis

**Q.** Which Ki does the source give for `NC(=O)[C@H](Cc1ccccc1)C[N+](=O)[O-]` here?
**A.** The Ki was 7.6 µM.

**Q.** For `NC(=O)[C@@H](Cc1ccccc1)C[N+](=O)[O-]`, which Ki is on record?
**A.** The Ki was 663 µM.

**Q.** Which Ki does the source give for `COC(=O)[C@H](Cc1ccccc1)NC(=O)[C@H](Cc1ccccc1)C[N+](=O)[O-]` here?
**A.** The Ki was 0.95 µM.

**Q.** Which Ki does the source give for `COC(=O)[C@H](Cc1ccccc1)NC(=O)[C@@H](Cc1ccccc1)C[N+](=O)[O-]` here?
**A.** Its Ki is 79 µM.

**Q.** `COC(=O)[C@@H](Cc1ccccc1)NC(=O)[C@H](Cc1ccccc1)C[N+](=O)[O-]` was tested. Which Ki did it give?
**A.** Its Ki is 1.4 µM.

**Q.** With `COC(=O)[C@@H](Cc1ccccc1)NC(=O)[C@@H](Cc1ccccc1)C[N+](=O)[O-]` as the molecule, how does the Ki read?
**A.** The Ki was 86 µM.

**Q.** `COC(=O)[C@H](Cc1ccccc1)NC(=O)[C@H](CC(C)C)C[N+](=O)[O-]` was tested. Which Ki did it give?
**A.** The Ki was 0.84 µM.

**Q.** For `COC(=O)[C@H](Cc1ccccc1)NC(=O)[C@@H](CC(C)C)C[N+](=O)[O-]`, which Ki is on record?
**A.** Its Ki is 7.2 µM.

**Q.** How did the Ki turn out when `COC(=O)[C@H](CC(C)C)NC(=O)[C@H](Cc1ccccc1)C[N+](=O)[O-]` was run?
**A.** The Ki was 0.37 µM.

**Q.** How did the Ki turn out when `COC(=O)[C@H](CC(C)C)NC(=O)[C@@H](Cc1ccccc1)C[N+](=O)[O-]` was run?
**A.** Its Ki is 2.4 µM.

**Q.** How did the Ki turn out when `COC(=O)[C@H](CC(C)C)NC(=O)[C@H](CC(C)C)C[N+](=O)[O-]` was run?
**A.** The Ki was 0.083 µM.

**Q.** How did the Ki turn out when `COC(=O)[C@H](CC(C)C)NC(=O)[C@@H](CC(C)C)C[N+](=O)[O-]` was run?
**A.** Its Ki is 0.77 µM.

**Q.** How did the Ki turn out when `NC(=O)C(Cc1ccccc1)C[N+](=O)[O-]` (racemic) was run?
**A.** The Ki was 36 µM.
